Test results: ChEMBL document CHEMBL4800722, “Data for DCP probe BI 605906” (2021)

Assays:
[1] = biological target: Receptor tyrosine-protein kinase erbB-4 (Homo sapiens) (UniProt Q15303); settings: Compound concentration 1.0 uM
Chymase (Homo sapiens) = Chymase (Homo sapiens) (UniProt P23946); settings: Compound concentration 10.0 uM
[2] = biological target: Ephrin type-A receptor 8 (Homo sapiens) (UniProt P29322); assay: EPHA8 Invitrogen Lab (UK) kinase screen (BI); settings: Compound concentration 1.0 uM
[3] = biological target: 5-hydroxytryptamine receptor 1B (Homo sapiens) (UniProt P28222); settings: Compound concentration 10.0 uM
[4] = biological target: AP2-associated protein kinase 1 (Homo sapiens, UniProt Q2M2I8)
Sequence of AP2-associated protein kinase 1 (Q2M2I8 whole entry, looked up): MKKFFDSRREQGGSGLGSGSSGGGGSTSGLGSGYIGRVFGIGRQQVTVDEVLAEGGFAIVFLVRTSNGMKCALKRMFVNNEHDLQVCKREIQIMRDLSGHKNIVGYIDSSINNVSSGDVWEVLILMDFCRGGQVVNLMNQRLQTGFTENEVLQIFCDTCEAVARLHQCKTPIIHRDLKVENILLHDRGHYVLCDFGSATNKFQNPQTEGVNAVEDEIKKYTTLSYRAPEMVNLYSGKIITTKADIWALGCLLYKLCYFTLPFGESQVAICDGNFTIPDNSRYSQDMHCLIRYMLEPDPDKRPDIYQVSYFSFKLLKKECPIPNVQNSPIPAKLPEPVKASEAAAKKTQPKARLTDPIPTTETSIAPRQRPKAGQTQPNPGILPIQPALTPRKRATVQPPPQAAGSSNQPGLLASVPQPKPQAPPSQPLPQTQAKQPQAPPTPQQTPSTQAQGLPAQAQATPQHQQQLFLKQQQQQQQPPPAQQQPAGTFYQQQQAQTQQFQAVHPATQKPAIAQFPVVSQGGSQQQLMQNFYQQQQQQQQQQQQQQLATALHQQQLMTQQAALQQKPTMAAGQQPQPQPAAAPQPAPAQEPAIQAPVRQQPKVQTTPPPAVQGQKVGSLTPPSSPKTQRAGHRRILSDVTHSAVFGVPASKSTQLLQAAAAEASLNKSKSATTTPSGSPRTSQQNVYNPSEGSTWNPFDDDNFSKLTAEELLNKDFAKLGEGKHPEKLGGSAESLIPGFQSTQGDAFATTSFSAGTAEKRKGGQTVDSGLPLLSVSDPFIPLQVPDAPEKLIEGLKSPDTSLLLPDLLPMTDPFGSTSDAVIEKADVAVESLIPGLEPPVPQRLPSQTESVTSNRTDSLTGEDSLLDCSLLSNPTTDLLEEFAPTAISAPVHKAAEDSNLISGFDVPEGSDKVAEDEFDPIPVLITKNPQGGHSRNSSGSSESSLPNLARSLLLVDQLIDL

[5] = biological target: Tyrosine-protein kinase ITK/TSK (Homo sapiens) (UniProt Q08881); assay: ITK Invitrogen Lab (UK) kinase screen (BI); settings: Compound concentration 1.0 uM
[6] = biological target: AMP-activated protein kinase (AMPK) alpha-1/beta-1/gamma-1 (Homo sapiens) (UniProt P54619+Q9Y478+Q13131)
Sequence of AMP-activated protein kinase (AMPK) alpha-1/beta-1/gamma-1 (Homo sapiens) (P54619 whole entry): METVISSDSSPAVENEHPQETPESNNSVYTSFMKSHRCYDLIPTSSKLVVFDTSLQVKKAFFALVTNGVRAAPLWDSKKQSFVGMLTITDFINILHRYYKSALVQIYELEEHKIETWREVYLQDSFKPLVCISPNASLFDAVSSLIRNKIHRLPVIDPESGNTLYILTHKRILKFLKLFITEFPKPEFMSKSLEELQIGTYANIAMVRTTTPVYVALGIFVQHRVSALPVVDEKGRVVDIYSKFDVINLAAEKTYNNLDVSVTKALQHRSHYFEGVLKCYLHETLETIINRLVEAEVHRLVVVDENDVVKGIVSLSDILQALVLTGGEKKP
Sequence of AMP-activated protein kinase (AMPK) alpha-1/beta-1/gamma-1 (Homo sapiens) (Q13131 whole entry partner): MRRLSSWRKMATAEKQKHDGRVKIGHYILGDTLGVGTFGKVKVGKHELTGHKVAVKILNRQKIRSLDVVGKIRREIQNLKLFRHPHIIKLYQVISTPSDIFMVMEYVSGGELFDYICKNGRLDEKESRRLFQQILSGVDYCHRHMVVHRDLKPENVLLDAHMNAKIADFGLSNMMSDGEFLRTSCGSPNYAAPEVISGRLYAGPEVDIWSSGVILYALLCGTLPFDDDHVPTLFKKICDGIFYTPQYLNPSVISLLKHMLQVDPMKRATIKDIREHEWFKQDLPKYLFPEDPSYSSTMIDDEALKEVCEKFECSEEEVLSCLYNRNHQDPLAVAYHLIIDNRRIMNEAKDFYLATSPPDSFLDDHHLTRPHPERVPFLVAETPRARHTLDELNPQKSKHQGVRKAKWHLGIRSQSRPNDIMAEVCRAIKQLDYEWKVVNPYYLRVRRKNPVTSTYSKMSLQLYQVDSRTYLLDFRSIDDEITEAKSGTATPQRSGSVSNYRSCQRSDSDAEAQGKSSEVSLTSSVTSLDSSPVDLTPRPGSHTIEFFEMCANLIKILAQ
Sequence of AMP-activated protein kinase (AMPK) alpha-1/beta-1/gamma-1 (Homo sapiens) (Q9Y478 2-270 partner limits assumed): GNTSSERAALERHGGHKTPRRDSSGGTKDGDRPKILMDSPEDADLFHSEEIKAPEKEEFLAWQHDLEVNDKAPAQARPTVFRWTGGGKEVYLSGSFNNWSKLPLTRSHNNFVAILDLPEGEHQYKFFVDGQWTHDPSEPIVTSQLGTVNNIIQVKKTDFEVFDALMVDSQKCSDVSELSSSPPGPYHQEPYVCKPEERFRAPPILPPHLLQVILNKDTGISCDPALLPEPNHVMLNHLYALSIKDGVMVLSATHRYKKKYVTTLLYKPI

[7] = biological target: AMPK alpha1/beta2/gamma1 (Homo sapiens) (UniProt O43741+P54619+Q13131); settings: Compound concentration 1.0 uM
[8] = system: Receptor-type tyrosine-protein kinase FLT3 (Homo sapiens), P36888 [UNDEFINED MUTATION]; settings: Compound concentration 1.0 uM
[9] = biological target: D(2) dopamine receptor (Homo sapiens) (UniProt P14416); settings: Compound concentration 10.0 uM
[10] = biological target: Protein kinase C theta type (Homo sapiens) (UniProt Q04759); settings: Compound concentration 1.0 uM
[11] = biological target: 5-hydroxytryptamine receptor 1D (Homo sapiens) (UniProt P28221); settings: Compound concentration 10.0 uM
Sequence of 5-hydroxytryptamine receptor 1D (Homo sapiens) (P28221 whole entry): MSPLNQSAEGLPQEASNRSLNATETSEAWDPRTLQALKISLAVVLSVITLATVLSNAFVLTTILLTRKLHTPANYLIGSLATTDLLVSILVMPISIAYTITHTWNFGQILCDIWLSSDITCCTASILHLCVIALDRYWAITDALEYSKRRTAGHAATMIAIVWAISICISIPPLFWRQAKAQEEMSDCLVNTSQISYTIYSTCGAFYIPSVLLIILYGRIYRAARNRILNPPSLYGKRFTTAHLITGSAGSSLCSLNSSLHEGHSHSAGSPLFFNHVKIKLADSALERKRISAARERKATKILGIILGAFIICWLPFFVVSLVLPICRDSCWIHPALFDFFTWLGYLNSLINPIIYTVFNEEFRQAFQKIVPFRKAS

[12] = biological target: Serine/threonine-protein kinase B-raf (Homo sapiens) (UniProt P15056); assay: BRAF Invitrogen Lab (UK) kinase screen (BI); settings: Compound concentration 1.0 uM
[13] = biological target: Tyrosine-protein kinase Lck (Homo sapiens) (UniProt P06239); assay: LCK Invitrogen Lab (UK) kinase screen (BI)
Sequence of Tyrosine-protein kinase Lck (Homo sapiens) (P06239 2-509 limits assumed): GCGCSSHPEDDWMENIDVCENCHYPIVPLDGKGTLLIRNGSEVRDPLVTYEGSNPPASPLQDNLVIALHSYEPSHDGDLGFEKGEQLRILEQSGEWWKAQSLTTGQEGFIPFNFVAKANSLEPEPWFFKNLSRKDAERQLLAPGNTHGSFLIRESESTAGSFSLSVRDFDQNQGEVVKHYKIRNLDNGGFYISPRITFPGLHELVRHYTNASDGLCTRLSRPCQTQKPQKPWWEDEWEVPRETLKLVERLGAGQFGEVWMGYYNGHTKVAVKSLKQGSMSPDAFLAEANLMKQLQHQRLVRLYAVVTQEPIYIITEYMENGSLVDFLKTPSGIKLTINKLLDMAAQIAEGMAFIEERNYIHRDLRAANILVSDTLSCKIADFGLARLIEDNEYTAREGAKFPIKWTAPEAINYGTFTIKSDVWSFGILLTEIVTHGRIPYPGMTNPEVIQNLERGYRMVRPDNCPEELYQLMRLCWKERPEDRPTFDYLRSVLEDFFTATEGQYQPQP

[14] = biological target: Cyclin-dependent kinase 2/cyclin A (Homo sapiens) (UniProt P24941+P20248+P78396); settings: Compound concentration 1.0 uM
[15] = biological target: Tyrosine-protein kinase Fyn (Homo sapiens) (UniProt P06241); settings: Compound concentration 1.0 uM
[16] = biological target: Tyrosine-protein kinase CSK (Homo sapiens) (UniProt P41240)
Sequence of Tyrosine-protein kinase CSK (Homo sapiens) (P41240 2-450 limits assumed): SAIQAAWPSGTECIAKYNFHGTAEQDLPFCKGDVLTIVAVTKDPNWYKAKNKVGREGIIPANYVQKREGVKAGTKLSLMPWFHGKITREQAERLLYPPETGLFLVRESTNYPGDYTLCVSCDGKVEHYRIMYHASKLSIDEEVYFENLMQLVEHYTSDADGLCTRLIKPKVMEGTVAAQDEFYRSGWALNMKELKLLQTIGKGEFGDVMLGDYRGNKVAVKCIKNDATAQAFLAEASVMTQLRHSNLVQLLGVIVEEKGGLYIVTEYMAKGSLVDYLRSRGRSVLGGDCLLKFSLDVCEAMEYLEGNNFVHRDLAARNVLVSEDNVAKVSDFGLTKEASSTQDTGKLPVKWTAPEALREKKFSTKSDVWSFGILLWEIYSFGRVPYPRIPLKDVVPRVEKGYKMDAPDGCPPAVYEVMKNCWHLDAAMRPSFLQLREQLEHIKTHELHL

[17] = biological target: Dual specificity mitogen-activated protein kinase kinase 1 (Homo sapiens) (UniProt Q02750); assay: MKK1 DUNDEE kinase screen (BI); settings: Oryctolagus cuniculus; Compound concentration 10.0 uM
Sequence of Dual specificity mitogen-activated protein kinase kinase 1 (Homo sapiens) (Q02750 whole entry): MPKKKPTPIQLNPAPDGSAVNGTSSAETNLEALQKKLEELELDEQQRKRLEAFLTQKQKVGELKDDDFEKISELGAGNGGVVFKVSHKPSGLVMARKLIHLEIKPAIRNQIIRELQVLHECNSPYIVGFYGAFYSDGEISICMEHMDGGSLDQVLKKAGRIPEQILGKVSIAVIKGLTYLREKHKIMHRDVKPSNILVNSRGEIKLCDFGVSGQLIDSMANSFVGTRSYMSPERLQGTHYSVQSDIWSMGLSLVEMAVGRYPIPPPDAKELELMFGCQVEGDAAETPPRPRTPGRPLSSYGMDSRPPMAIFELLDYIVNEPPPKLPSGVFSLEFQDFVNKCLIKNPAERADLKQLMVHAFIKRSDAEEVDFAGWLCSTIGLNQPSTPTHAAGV

[18] = biological target: Tyrosine-protein kinase Blk (Homo sapiens) (UniProt P51451); assay: BLK Invitrogen Lab (UK) kinase screen (BI); settings: Compound concentration 1.0 uM
[19] = biological target: Mitogen-activated protein kinase kinase kinase 21 (Homo sapiens) (UniProt Q5TCX8); settings: Compound concentration 1.0 uM
[20] = biological target: Serine/threonine-protein kinase MARK1 (Homo sapiens) (UniProt Q9P0L2); settings: Compound concentration 1.0 uM
[21] = biological target: Mitogen-activated protein kinase kinase kinase 20 (Homo sapiens) (UniProt Q9NYL2); settings: Compound concentration 1.0 uM
[22] = biological target: Carbonic anhydrase (Homo sapiens) (UniProt P00918+P43166+P00915+P07451+P23280+O43570+Q9ULX7+Q16790+P22748+Q8N1Q1+Q9Y2D0+P35218); assay: CANHYDRASE Eurofins SafetyScreen44 (BI); type: protein assay; settings: Compound concentration 10.0 uM
[23] = biological target: Serine/threonine-protein kinase Nek6 (Homo sapiens) (UniProt Q9HC98); assay: NEK6 DUNDEE kinase screen (BI); settings: Compound concentration 10.0 uM
[24] = biological target: Kappa-type opioid receptor (Homo sapiens) (UniProt P41145); settings: Compound concentration 10.0 uM
[25] = biological target: Serine/threonine-protein kinase D1 (Homo sapiens) (UniProt Q15139); assay: PRKD1 Invitrogen Lab (UK) kinase screen (BI); settings: Compound concentration 1.0 uM
[26] = biological target: Serine/threonine-protein kinase PAK 2 (Homo sapiens) (UniProt Q13177); settings: Compound concentration 1.0 uM
Sequence of Serine/threonine-protein kinase PAK 2 (Homo sapiens) (Q13177 whole entry): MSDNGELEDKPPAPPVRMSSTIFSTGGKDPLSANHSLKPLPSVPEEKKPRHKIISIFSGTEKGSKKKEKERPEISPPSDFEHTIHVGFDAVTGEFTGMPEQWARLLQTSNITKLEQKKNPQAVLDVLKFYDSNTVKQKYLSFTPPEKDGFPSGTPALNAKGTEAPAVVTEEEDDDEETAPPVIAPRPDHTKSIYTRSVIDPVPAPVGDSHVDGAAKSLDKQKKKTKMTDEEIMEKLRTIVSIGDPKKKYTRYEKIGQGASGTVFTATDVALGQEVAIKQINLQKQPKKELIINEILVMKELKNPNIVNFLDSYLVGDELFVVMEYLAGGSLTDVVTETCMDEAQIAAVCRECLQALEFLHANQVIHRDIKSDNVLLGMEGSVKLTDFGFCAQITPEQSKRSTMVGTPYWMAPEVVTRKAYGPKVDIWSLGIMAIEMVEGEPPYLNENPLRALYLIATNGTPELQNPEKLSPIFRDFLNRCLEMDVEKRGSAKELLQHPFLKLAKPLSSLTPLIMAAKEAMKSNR

[27] = biological target: Ribosomal protein S6 kinase alpha-3 (Homo sapiens) (UniProt P51812); assay: MAPKAP-K1B DUNDEE kinase screen (BI); settings: Compound concentration 10.0 uM
[28] = biological target: SRSF protein kinase 3 (Homo sapiens) (UniProt Q9UPE1); settings: Compound concentration 1.0 uM
[29] = biological target: Serine/threonine-protein kinase ULK1 (Homo sapiens) (UniProt O75385); settings: Compound concentration 1.0 uM
[30] = biological target: Beta-1 adrenergic receptor (Homo sapiens) (UniProt P08588); settings: Compound concentration 10.0 uM
Sequence of Beta-1 adrenergic receptor (Homo sapiens) (P08588 whole entry, looked up): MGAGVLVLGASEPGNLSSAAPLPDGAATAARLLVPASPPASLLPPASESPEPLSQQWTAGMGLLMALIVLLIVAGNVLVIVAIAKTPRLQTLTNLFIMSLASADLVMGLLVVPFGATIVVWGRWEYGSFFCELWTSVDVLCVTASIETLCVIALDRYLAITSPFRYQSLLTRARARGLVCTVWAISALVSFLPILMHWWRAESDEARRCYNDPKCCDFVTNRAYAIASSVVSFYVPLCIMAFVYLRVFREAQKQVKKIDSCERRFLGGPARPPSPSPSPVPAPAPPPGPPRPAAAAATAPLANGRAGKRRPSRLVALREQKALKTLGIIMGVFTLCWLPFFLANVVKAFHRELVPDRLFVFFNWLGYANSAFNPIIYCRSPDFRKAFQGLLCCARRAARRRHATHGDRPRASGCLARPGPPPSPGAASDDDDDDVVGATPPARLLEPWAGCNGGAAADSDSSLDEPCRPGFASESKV

[31] = biological target: Leucine-rich repeat serine/threonine-protein kinase 2 (Homo sapiens) (UniProt Q5S007); assay: LRRK2 Invitrogen Lab (UK) kinase screen (BI); settings: Compound concentration 1.0 uM
[32] = biological target: Neutrophil elastase (Homo sapiens) (UniProt P08246); settings: Compound concentration 10.0 uM
[33] = biological target: Adenosine receptor A1 (Homo sapiens) (UniProt P30542); assay: A1/HU Eurofins SafetyScreen44 (BI); settings: Compound concentration 100.0 uM
[34] = biological target: Serine/threonine-protein kinase N2 (Homo sapiens) (UniProt Q16513); assay: PKN2 Invitrogen Lab (UK) kinase screen (BI); settings: Compound concentration 1.0 uM
[35] = biological target: Cyclin-dependent kinase 1/cyclin B (Homo sapiens) (UniProt P06493+P14635+Q8WWL7+O95067)
[36] = biological target: Non-receptor tyrosine-protein kinase TYK2 (Homo sapiens) (UniProt P29597); settings: Compound concentration 1.0 uM
[37] = biological target: Aurora kinase B (Homo sapiens) (UniProt Q96GD4); assay: AURORA B DUNDEE kinase screen (BI); settings: Compound concentration 10.0 uM
[38] = biological target: SRSF protein kinase 1 (Homo sapiens) (UniProt Q96SB4); settings: Compound concentration 1.0 uM
[39] = biological target: Nitric oxide synthase, inducible (Mus musculus) (UniProt P29477); settings: Compound concentration 10.0 uM
[40] = biological target: Misshapen-like kinase 1 (Homo sapiens) (UniProt Q8N4C8); settings: Compound concentration 1.0 uM
[41] = biological target: Calcium/calmodulin-dependent protein kinase type II subunit gamma (Homo sapiens) (UniProt Q13555); settings: Compound concentration 1.0 uM

In the case of `CCC(F)(F)c1cc(N2CCC(S(C)(=O)=O)CC2)nc2sc(C(N)=O)c(N)c12` [BI-605906], the residual activity [1] is reported as 94%, the residual activity (Chymase (Homo sapiens)) is reported as 93% and the residual activity [2] is reported as 85%. For the same compound, the inhibition [3] was 3.43%, the residual activity ([4]; Compound concentration 0.001 uM) was 101% and the residual activity ([4]; Compound concentration 1.0 uM) was 13%. For the same compound, the residual activity ([4]; Compound concentration 20.0 uM) was 4%, the residual activity [5] was 107% and the residual activity ([6]; Compound concentration 1.0 uM) was 95%. The residual activity ([6]; Compound concentration 10.0 uM) was 80%, the residual activity [7] was 91% and the residual activity [8] was 101%. For the same compound, the inhibition [9] was 69.8%, the residual activity [10] was 101% and the inhibition [11] was 26.9%. For the same compound, the residual activity [12] was 72%, the residual activity ([13]; Compound concentration 1.0 uM) was 68% and the residual activity ([13]; Compound concentration 10.0 uM) was 67%. The residual activity [14] was 90%, the residual activity [15] was 89% and the residual activity ([16]; Compound concentration 1.0 uM) was 96%. The residual activity ([16]; Compound concentration 10.0 uM) was 84%, the residual activity [17] was 19.3% and the residual activity [18] was 88%. It also gave a residual activity [19] of 97%, a residual activity [20] of 91% and a residual activity [21] of 97%. The residual activity [22] was 86%, the residual activity [23] was 83.3% and the inhibition [24] was 8.09%. For the same compound, the residual activity [25] was 83%, the residual activity [26] was 95% and the residual activity [27] was 78.2%. It also gave a residual activity [28] of 99%, a residual activity [29] of 94% and an inhibition [30] of -8.38%. For the same compound, the residual activity [31] was 62%, the residual activity [32] was 98% and the residual activity [33] was 77%. The residual activity [34] was 86%, the residual activity ([35]; Compound concentration 1.0 uM) was 92% and the residual activity ([35]; Compound concentration 10.0 uM) was 94%. For the same compound, the residual activity [36] was 93%, the residual activity [37] was 60.9% and the residual activity [38] was 99%. For the same compound, the residual activity [39] was 108%, the residual activity [40] was 96% and the residual activity [41] was 90%.
